{
  "source": "paper PMC5862592",
  "about": "“CDK8/19 inhibition induces premature G1/S transition and ATR-dependent cell death in prostate cancer cells” (Oncotarget, 2018)",
  "test_in_all_cases": "biochemical",
  "parameters_in_all_cases": "KINOMEscan active site-directed competition binding assay (DiscoveRx), 456 kinases, per cent of control at 300 nM",
  "conditions_in_all_cases": "read-out: Percent of Control (%)",
  "key": {"SIK": {"biological_target": "T1, SIK (Homo sapiens, UniProt P57059)", "T1 construct": "gene SIK1", "how_it_was_run": "(§1)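 Binding was measured with an active site-directed competition binding assay that quantifies compound–kinase interactions. Test compounds were screened at 300 nmol/L across a 456-kinase panel.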"}, "[1]": {"biological_target": "T2, ABL1(T315I)-phosphorylated (Homo sapiens, UniProt P00519, T315I)", "T2 construct": "phosphorylated", "how_it_was_run": "as §1"}, "[2]": {"biological_target": "T3, RPS6KA4(Kin.Dom.2-C-terminal) (Homo sapiens, UniProt O75676)", "T3 construct": "Kin.Dom.2-C-terminal", "how_it_was_run": "as §1"}, "HCK": {"biological_target": "HCK (Homo sapiens, UniProt P08631)", "how_it_was_run": "as §1"}, "EPHA6": {"biological_target": "EPHA6 (Homo sapiens, UniProt Q9UF33)", "how_it_was_run": "as §1"}, "PRKG2": {"biological_target": "PRKG2 (Homo sapiens, UniProt Q13237)", "sequence (Q13237 whole entry)": "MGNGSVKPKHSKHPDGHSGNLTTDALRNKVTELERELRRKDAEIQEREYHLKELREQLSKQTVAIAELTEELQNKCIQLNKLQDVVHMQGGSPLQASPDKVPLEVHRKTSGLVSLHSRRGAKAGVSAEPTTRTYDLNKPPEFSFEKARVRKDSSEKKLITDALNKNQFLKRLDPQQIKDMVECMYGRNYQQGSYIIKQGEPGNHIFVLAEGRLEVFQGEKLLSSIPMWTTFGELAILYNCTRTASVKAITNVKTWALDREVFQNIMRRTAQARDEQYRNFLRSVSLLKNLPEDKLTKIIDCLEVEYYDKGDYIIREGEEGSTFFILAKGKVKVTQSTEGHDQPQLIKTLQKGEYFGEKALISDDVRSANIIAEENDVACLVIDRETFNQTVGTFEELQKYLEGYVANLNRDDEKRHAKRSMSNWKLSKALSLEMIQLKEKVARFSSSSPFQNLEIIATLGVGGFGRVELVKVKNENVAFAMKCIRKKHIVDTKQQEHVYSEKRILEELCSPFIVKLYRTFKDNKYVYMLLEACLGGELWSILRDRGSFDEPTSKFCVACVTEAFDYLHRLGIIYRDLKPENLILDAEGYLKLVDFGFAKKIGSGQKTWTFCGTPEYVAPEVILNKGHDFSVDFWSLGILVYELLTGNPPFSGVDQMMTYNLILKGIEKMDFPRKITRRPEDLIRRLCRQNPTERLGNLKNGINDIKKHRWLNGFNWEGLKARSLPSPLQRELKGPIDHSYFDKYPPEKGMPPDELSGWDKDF", "how_it_was_run": "as §1"}, "GRK7": {"biological_target": "GRK7 (Homo sapiens, UniProt Q8WTQ7)", "how_it_was_run": "as §1"}, "JNK2": {"biological_target": "T4, JNK2 (Homo sapiens, UniProt P45984)", "T4 construct": "gene MAPK9", "how_it_was_run": "as §1"}, "KIT(V559D)": {"biological_target": "KIT(V559D) (Homo sapiens, UniProt P10721, V559D)", "sequence (P10721 whole entry V559D)": "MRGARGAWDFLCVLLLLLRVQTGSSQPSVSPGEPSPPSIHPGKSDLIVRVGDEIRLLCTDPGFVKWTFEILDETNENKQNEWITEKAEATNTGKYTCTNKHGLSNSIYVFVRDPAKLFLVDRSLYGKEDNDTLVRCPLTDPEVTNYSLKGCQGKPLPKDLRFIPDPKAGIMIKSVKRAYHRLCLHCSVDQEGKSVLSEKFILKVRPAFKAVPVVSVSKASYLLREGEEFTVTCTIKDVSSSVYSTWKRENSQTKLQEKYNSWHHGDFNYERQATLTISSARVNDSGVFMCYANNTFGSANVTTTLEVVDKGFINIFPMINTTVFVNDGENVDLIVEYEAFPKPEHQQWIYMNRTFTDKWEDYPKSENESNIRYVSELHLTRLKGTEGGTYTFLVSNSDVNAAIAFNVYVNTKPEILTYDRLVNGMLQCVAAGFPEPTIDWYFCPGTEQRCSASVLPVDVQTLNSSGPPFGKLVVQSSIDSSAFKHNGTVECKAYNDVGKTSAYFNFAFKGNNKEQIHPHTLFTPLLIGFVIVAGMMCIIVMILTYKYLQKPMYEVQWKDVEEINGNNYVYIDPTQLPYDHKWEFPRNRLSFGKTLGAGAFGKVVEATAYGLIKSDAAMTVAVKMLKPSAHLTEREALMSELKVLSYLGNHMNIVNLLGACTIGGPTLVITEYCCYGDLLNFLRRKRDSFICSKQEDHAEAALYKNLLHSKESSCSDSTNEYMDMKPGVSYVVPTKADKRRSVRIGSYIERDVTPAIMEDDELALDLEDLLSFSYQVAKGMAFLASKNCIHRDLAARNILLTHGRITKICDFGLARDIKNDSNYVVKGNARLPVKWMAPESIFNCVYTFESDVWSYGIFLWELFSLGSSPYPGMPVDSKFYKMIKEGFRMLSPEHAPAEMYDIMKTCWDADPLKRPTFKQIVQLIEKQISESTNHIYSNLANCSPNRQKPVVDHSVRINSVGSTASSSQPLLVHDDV", "how_it_was_run": "as §1"}, "PRKD3": {"biological_target": "PRKD3 (Homo sapiens, UniProt O94806)", "sequence (O94806 whole entry)": "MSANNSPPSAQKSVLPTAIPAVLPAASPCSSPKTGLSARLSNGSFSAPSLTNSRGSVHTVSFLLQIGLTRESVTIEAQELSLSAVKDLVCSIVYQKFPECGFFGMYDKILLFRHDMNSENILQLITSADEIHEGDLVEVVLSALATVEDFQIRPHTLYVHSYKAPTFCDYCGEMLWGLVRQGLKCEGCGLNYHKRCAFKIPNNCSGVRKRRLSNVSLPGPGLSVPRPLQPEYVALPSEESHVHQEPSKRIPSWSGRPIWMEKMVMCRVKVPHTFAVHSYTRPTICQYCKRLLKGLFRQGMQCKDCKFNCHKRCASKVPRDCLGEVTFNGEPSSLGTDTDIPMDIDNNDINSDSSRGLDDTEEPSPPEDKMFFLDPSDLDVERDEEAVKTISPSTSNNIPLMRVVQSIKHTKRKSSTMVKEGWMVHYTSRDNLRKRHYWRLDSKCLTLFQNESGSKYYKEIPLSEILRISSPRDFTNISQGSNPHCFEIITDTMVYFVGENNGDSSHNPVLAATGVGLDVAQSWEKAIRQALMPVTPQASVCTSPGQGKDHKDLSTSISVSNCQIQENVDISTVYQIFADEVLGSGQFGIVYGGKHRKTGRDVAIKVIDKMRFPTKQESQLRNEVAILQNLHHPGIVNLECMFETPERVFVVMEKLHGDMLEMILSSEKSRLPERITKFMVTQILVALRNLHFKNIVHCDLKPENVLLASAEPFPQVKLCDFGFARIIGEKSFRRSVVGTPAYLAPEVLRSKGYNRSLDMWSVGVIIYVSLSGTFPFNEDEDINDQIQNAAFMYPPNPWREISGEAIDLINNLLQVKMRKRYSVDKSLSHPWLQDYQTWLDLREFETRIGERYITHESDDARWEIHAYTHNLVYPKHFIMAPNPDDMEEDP", "how_it_was_run": "as §1"}, "CTK": {"biological_target": "T5, CTK (Homo sapiens, UniProt P42679)", "T5 construct": "gene MATK", "how_it_was_run": "as §1"}, "PFTAIRE2": {"biological_target": "T6, PFTAIRE2 (Homo sapiens, UniProt Q96Q40)", "T6 construct": "gene CDK15", "how_it_was_run": "as §1"}, "PIM3": {"biological_target": "PIM3 (Homo sapiens, UniProt Q86V86)", "how_it_was_run": "as §1"}, "PIK3CA(M1043I)": {"biological_target": "PIK3CA(M1043I) (Homo sapiens, UniProt P42336, M1043I)", "how_it_was_run": "as §1"}, "TRKA": {"biological_target": "T7, TRKA (Homo sapiens, UniProt P04629)", "T7 construct": "gene NTRK1", "how_it_was_run": "as §1"}, "CSNK1A1": {"biological_target": "CSNK1A1 (Homo sapiens, UniProt P48729)", "sequence (P48729 whole entry)": "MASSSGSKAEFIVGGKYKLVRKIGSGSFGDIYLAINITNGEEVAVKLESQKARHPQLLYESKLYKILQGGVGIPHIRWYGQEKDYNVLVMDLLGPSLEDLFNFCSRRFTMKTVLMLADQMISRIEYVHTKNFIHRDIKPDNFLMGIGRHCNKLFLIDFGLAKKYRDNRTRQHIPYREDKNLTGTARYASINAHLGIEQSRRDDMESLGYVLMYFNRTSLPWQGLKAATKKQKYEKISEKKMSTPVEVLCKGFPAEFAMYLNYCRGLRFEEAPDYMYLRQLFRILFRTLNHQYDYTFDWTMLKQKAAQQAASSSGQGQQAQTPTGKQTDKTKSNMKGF", "how_it_was_run": "as §1"}, "ALK(L1196M)": {"biological_target": "ALK(L1196M) (Homo sapiens, UniProt Q9UM73, L1196M)", "sequence (Q9UM73 whole entry L1196M)": "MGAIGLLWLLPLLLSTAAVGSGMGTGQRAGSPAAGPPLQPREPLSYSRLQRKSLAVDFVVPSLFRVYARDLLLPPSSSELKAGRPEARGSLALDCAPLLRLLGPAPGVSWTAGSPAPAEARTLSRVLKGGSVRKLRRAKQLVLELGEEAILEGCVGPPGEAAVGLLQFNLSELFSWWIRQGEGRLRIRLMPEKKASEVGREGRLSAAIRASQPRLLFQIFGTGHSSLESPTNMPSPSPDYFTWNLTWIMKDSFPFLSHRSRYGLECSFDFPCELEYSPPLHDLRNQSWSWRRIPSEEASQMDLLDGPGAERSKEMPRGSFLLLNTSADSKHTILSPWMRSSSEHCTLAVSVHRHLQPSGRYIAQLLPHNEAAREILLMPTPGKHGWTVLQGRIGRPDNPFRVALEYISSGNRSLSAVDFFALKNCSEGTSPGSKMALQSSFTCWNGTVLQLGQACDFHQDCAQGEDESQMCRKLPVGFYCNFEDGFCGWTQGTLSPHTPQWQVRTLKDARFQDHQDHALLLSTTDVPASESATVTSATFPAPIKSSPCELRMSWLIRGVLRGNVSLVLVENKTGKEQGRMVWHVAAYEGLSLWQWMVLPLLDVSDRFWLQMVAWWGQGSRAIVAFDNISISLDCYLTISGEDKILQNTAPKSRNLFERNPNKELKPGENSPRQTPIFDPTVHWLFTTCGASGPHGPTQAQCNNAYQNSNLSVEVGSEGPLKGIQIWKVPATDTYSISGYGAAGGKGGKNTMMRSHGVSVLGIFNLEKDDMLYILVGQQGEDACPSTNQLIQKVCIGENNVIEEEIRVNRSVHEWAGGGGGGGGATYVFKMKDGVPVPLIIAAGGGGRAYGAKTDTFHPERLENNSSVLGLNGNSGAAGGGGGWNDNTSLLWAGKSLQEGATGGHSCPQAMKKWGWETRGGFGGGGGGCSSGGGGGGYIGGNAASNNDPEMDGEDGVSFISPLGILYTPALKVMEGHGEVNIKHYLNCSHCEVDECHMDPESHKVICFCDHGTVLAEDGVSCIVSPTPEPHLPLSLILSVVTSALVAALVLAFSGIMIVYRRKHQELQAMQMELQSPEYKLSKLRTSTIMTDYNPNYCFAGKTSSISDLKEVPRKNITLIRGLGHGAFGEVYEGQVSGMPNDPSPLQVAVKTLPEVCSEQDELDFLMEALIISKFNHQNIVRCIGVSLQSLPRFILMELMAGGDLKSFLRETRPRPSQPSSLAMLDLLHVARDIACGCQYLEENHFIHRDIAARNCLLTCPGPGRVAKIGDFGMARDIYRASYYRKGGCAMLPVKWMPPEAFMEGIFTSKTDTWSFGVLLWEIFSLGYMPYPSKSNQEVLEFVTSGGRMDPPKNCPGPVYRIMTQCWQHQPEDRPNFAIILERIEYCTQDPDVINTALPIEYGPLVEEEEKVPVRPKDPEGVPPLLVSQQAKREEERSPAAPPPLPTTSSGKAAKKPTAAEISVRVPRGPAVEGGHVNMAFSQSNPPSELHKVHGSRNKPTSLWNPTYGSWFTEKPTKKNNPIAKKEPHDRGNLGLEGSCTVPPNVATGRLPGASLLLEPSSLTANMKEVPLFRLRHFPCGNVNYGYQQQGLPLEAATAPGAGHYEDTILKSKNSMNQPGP", "how_it_was_run": "as §1"}, "TIE2": {"biological_target": "T8, TIE2 (Homo sapiens, UniProt Q02763)", "T8 construct": "gene TEK", "how_it_was_run": "as §1"}, "[3]": {"biological_target": "T9, ABL1(Q252H)-phosphorylated (Homo sapiens, UniProt P00519, Q252H)", "T9 construct": "phosphorylated", "how_it_was_run": "as §1"}, "PRKCE": {"biological_target": "PRKCE (Homo sapiens, UniProt Q02156)", "how_it_was_run": "as §1"}, "[4]": {"biological_target": "T10, ABL1(F317I)-nonphosphorylated (Homo sapiens, UniProt P00519, F317I)", "T10 construct": "nonphosphorylated", "how_it_was_run": "as §1"}},
  "note": "Like-named read-outs stand apart in the source and are kept apart here.",
  "data": [
    {"smiles": "O=C(/C=C/c1cnccc1-c1ccc(F)cc1)Nc1ccc(CCc2nnco2)cc1", "note": "[T-418, (2E)-3-(4-(4-fluorophenyl)pyridin-3-yl)-N-(4-(2-(1,3,4-oxadiazol-2-yl)ethyl)phenyl)acrylamide]", "values": [
      {"measurement": "remaining binding at 0.3 µM", "setting": "SIK; sheet T-418", "value": 87, "unit": "%"},
      {"measurement": "remaining binding at 0.3 µM", "setting": "[1]; sheet T-418", "value": 100, "unit": "%"},
      {"measurement": "remaining binding at 0.3 µM", "setting": "[2]; sheet T-418", "value": 86, "unit": "%"},
      {"measurement": "remaining binding at 0.3 µM", "setting": "HCK; sheet T-418", "value": 100, "unit": "%"},
      {"measurement": "remaining binding at 0.3 µM", "setting": "EPHA6; sheet T-418", "value": 100, "unit": "%"},
      {"measurement": "remaining binding at 0.3 µM", "setting": "PRKG2; sheet T-418", "value": 49, "unit": "%"},
      {"measurement": "remaining binding at 0.3 µM", "setting": "GRK7; sheet T-418", "value": 80, "unit": "%"},
      {"measurement": "remaining binding at 0.3 µM", "setting": "JNK2; sheet T-418", "value": 86, "unit": "%"},
      {"measurement": "remaining binding at 0.3 µM", "setting": "KIT(V559D); sheet T-418", "value": 100, "unit": "%"},
      {"measurement": "remaining binding at 0.3 µM", "setting": "PRKD3; sheet T-418", "value": 100, "unit": "%"},
      {"measurement": "remaining binding at 0.3 µM", "setting": "CTK; sheet T-418", "value": 100, "unit": "%"},
      {"measurement": "remaining binding at 0.3 µM", "setting": "PFTAIRE2; sheet T-418", "value": 92, "unit": "%"},
      {"measurement": "remaining binding at 0.3 µM", "setting": "PIM3; sheet T-418", "value": 76, "unit": "%"},
      {"measurement": "remaining binding at 0.3 µM", "setting": "PIK3CA(M1043I); sheet T-418", "value": 100, "unit": "%"},
      {"measurement": "remaining binding at 0.3 µM", "setting": "TRKA; sheet T-418", "value": 92, "unit": "%"},
      {"measurement": "remaining binding at 0.3 µM", "setting": "CSNK1A1; sheet T-418", "value": 100, "unit": "%"},
      {"measurement": "remaining binding at 0.3 µM", "setting": "ALK(L1196M); sheet T-418", "value": 100, "unit": "%"},
      {"measurement": "remaining binding at 0.3 µM", "setting": "TIE2; sheet T-418", "value": 85, "unit": "%"},
      {"measurement": "remaining binding at 0.3 µM", "setting": "[3]; sheet T-418", "value": 84, "unit": "%"},
      {"measurement": "remaining binding at 0.3 µM", "setting": "PRKCE; sheet T-418", "value": 39, "unit": "%"},
      {"measurement": "remaining binding at 0.3 µM", "setting": "[4]; sheet T-418", "value": 100, "unit": "%"}
    ]},
    {"smiles": "Cc1ncccc1Oc1sc(C(N)=O)c2c1-c1c(cnn1C)CC2", "note": "[T-474, 1-methyl-8-((2-methylpyridin-3-yl)oxy)-4,5-dihydro-1H-thieno[3,4-g]indazole-6-carboxamide]", "values": [
      {"measurement": "remaining binding at 0.3 µM", "setting": "SIK", "value": 100, "unit": "%"},
      {"measurement": "remaining binding at 0.3 µM", "setting": "[1]", "value": 100, "unit": "%"},
      {"measurement": "remaining binding at 0.3 µM", "setting": "[2]", "value": 95, "unit": "%"},
      {"measurement": "remaining binding at 0.3 µM", "setting": "HCK", "value": 100, "unit": "%"},
      {"measurement": "remaining binding at 0.3 µM", "setting": "EPHA6", "value": 100, "unit": "%"},
      {"measurement": "remaining binding at 0.3 µM", "setting": "PRKG2", "value": 48, "unit": "%"},
      {"measurement": "remaining binding at 0.3 µM", "setting": "GRK7", "value": 100, "unit": "%"},
      {"measurement": "remaining binding at 0.3 µM", "setting": "JNK2", "value": 87, "unit": "%"},
      {"measurement": "remaining binding at 0.3 µM", "setting": "KIT(V559D)", "value": 100, "unit": "%"},
      {"measurement": "remaining binding at 0.3 µM", "setting": "PRKD3", "value": 100, "unit": "%"},
      {"measurement": "remaining binding at 0.3 µM", "setting": "CTK", "value": 100, "unit": "%"},
      {"measurement": "remaining binding at 0.3 µM", "setting": "PFTAIRE2", "value": 100, "unit": "%"},
      {"measurement": "remaining binding at 0.3 µM", "setting": "PIM3", "value": 82, "unit": "%"},
      {"measurement": "remaining binding at 0.3 µM", "setting": "PIK3CA(M1043I)", "value": 100, "unit": "%"},
      {"measurement": "remaining binding at 0.3 µM", "setting": "TRKA", "value": 95, "unit": "%"},
      {"measurement": "remaining binding at 0.3 µM", "setting": "CSNK1A1", "value": 98, "unit": "%"},
      {"measurement": "remaining binding at 0.3 µM", "setting": "ALK(L1196M)", "value": 100, "unit": "%"},
      {"measurement": "remaining binding at 0.3 µM", "setting": "TIE2", "value": 99, "unit": "%"},
      {"measurement": "remaining binding at 0.3 µM", "setting": "[3]", "value": 89, "unit": "%"},
      {"measurement": "remaining binding at 0.3 µM", "setting": "PRKCE", "value": 35, "unit": "%"},
      {"measurement": "remaining binding at 0.3 µM", "setting": "[4]", "value": 100, "unit": "%"}
    ]}
  ]
}
